The source of these data is US20020042054A1, “Vigilance nucleic acids and related diagnostic, screening and therapeutic methods” (priority 1999, published 2002).

The test system of data set [1] is Drosophila. The data set is classed as in vivo, Drosophila melanogaster. On the procedure:
In order to monitor fly behavior, five-day old virgin female Canton-S Drosophila melanogaster were cultured at 25° C., 50-60% humidity, 12 hr:12 hr light:dark cycle, on brewer's yeast, dark corn syrup and agar food, following procedures modified from J. Bennett and D. L. van Dyke, Dros. Inform. Serv. 46:160 (1971). Continuous, high-resolution measurement of fly behavior was achieved using an ultrasound activity monitoring system shown in FIG. 1A. Briefly, a 44 kHz standing wave was passed across an independent enclosure containing a single fly. An integrated circuit sampled a portion of each wave as a function of the transmit signal and compared it to the output from the receive signal for the same time-window. When the fly moved its mass within the field, it perturbed the standing wave and the resulting difference was counted as a movement. The output was sampled by a PC at 200 Hz, the data were summed in 2-sec bins and stored for later processing. This system detects very small movements in Drosophila's behavioral repertoire, including fine movements of the head, wings, and limbs.
To monitor rest-activity patterns in large numbers of flies, an infrared Drosophila Activity Monitoring System was used (Trikinetics; described in M. Hamblen et al., J. Neurogen. 3:249 (1986)). To validate the system, flies were visually monitored for a total of 17.75 h (n=7). The number of times the fly crossed the infrared beam was counted in 5-minute bins.
Drugs (caffeine or hydroxyzine) dissolved in food were continuously available to flies beginning in the final hour of the light period.
The increase in rest was not associated with a general impairment of fly behavior. The activity per waking minute was unchanged during the dark period (both during the first hour and the subsequent hours). The total amount of activity during the light period was also unchanged. Furthermore, responsiveness to arousing stimuli was preserved.

Data set [2] has as its system Drosophila. Nature of the data set: Responsiveness to arousing stimuli in flies given drug. The arrangement: species or system Drosophila melanogaster. The note with it: in vivo.
Method: In order to determine whether periods of rest are associated with increased arousal thresholds, flies were subjected to vibratory stimuli of increasing intensity (0.05 g, 0.1 g, and 6 g). In these experiments, flies were placed in glass tubes (65 mm in length, 5 mm I.D.) maintained on a hard plastic platform above a Grass speaker. The output of the speaker was controlled via a Beckman signal generator and the resulting vibration of the platform was measured with an accelerometer. Each fly received a stimulus each hour (total of 8 stimuli) of constant intensity. The behavioral state at the time of stimulus delivery and the ensuing response were videotaped and scored off-line.
Data set [3] has as its system Drosophila. The experiment in a line: Grooming control for validating the infrared system: dusting flies. The data set is classed as in vivo, Drosophila melanogaster. The note with it: flies dusted with the substance. On the procedure:
Additional controls were used to validate the infrared system. […] It was determined that food deprivation for 1 day increased waking by 50% in Drosophila.

On to `Cn1c(=O)c2c(ncn2C)n(C)c1=O` [caffeine], for which, in the data set on Drosophila [1] (drug in food from the final hour of the light period, n=36/dose), the motor activity result is recorded as “increased”. Also, the “amount of rest during the dark period” value in the data set on Drosophila [1] (drug in food from the final hour of the light period, n=36/dose, p<0.0001, FIG. 3C) is on record as “decreased in a dose-dependent fashion”.
Turning to `OCCOCCN1CCN(C(c2ccccc2)c2ccc(Cl)cc2)CC1` (centres unmarked) [hydroxyzine], the “rest during the first hour of the dark period” value with Drosophila [1] (drug in food from the final hour of the light period, n=40/dose, FIG. 3D) was “increased in a dose-dependent manner”. Besides, in the data set on Drosophila [1] (drug in food from the final hour of the light period, n=40/dose, FIG. 3E), the “latency to first dark period rest” value is “decreased”. Further, the “total amount of activity during the light period” value in the data set on Drosophila [1] (in vivo) was “unchanged”. In the data set with Drosophila [2], the “responsiveness to arousing stimuli” value is “preserved”.
Turning to Reactive Yellow, in the data set on Drosophila [3], the “increase in grooming behavior” value is recorded as 72% and the “number of infrared crossings” value was “did not reduce”.
